The target in data set [1] is T1, AhR (Homo sapiens, UniProt P35869).
T1 sequence (P35869 11-848): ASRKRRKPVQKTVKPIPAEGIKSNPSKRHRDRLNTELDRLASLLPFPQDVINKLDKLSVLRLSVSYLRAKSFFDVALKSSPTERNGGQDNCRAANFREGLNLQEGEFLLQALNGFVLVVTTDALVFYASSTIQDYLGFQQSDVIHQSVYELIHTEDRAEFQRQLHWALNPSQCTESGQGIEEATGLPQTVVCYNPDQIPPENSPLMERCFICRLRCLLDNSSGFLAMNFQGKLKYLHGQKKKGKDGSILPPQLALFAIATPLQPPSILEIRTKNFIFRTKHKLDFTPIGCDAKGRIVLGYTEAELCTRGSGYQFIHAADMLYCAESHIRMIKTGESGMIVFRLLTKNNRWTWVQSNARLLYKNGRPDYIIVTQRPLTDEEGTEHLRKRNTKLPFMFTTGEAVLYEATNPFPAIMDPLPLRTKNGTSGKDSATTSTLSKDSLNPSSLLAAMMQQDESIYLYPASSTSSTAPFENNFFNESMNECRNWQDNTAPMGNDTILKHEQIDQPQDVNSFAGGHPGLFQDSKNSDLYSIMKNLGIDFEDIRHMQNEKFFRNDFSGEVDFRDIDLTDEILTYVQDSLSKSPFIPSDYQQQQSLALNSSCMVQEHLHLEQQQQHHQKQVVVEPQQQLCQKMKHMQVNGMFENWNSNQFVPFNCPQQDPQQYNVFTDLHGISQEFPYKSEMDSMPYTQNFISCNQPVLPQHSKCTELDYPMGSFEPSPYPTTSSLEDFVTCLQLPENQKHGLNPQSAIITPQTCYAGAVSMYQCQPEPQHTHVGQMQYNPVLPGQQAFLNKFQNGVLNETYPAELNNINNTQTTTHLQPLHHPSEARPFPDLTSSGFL
Briefly: In Vitro Assay 4: endogenous AhR activity assay (CYP1A1 and CYP1B1 mRNA, qRT-PCR, HepG2 cells). In general terms: Quantitative PCR measures a nucleic acid by following its amplification.
Experimental: In Vitro Assay 4: Endogenous AhR Activity Assay
HepG2 cells were seeded in 12-well plate (3×10^5 cells/well). A day after seeding, the cells were treated with TCDD (10 nM) alone or with compounds (123 nM) for 4 hours. Total RNA was extracted using Trizol (Thermo Fisher Scientific). cDNA synthesis and quantitative RT-PCR (qRT-PCR) assays were performed using PrimeScript™ RT Master Mix (TAKARA) and TB Green™ Premix Ex Taq™ II (TAKARA) in accordance with manufacturer's instruction. For the measurement of endogenous AhR activity, relative mRNA levels of CYP1A1 and CYP1B1 were quantitated relative to β-actin mRNA by the comparative Ct (ΔΔCt) method. The percent inhibitions were calculated according to:

In data set [2] the target is T1, AhR. The data set can be described thus: In Vitro Assay 1: XRE-luciferase reporter assay, antagonism in human cell line (HepG2). In general terms: Reporter assays use an easily measured gene product as a stand-in for the process of interest.
Data set [3] has as its target T2, AhR (Mus musculus, UniProt P30561).
T2 sequence (P30561 1-848): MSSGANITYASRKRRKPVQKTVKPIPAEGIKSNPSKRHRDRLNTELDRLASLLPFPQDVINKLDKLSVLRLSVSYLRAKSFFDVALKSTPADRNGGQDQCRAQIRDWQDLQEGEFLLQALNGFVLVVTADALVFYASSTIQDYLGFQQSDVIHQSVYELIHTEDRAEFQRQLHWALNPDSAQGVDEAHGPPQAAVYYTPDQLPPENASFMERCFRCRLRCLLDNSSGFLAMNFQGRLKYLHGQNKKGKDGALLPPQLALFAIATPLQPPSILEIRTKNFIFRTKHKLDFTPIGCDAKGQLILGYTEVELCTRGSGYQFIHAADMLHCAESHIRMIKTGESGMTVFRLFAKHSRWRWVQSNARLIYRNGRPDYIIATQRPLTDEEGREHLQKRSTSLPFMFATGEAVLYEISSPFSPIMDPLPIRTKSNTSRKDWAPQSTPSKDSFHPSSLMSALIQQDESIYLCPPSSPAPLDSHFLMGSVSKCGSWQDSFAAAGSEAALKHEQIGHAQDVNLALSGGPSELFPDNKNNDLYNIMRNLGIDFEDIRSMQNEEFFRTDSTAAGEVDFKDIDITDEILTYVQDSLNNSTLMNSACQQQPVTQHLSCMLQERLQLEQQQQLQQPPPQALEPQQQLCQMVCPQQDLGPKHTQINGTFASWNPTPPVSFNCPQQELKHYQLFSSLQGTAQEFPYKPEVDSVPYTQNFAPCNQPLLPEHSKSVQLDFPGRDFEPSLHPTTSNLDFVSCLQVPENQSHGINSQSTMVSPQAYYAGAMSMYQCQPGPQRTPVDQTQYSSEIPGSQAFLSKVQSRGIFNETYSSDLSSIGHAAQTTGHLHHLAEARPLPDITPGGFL
The data set can be described thus: In Vitro Assay 2: XRE-luciferase reporter assay, antagonism in mouse cell line (Hepa1c1c7). It counts as cell-based. Particulars: 6 hours, read-out: Assay 2: AhR-Luc Mouse Antagonism (IC50). The protocol:
In Vitro Assay 2: Antagonism in Mouse Cell Line
Hepa1c1c7 (murine liver cancer cell line) cells co-transfected with XRE-Luc and Nano-Luc plasmids were plated in complete medium and incubated overnight at 37° C. in a CO2 incubator. Following incubation, cells were treated with AhR activating ligands such as kynurenic acid, kynurenine (#) with or without test compounds for 6 hours.

In data set [4] the target is T1, AhR. The data set can be described thus: In Vitro Assay 3: XRE-luciferase reporter assay, agonism in human cell line (HepG2). It counts as cell-based. As to conditions: HepG2, tryptophan free medium, 6 hours, no agonist, read-out: Assay 3: AhR-Luc Human Agonism (EC50). Also noted: endogenous in cells; host or cells: HepG2. The protocol:
In Vitro Assay 3: Agonism in Human Cell Line
HepG2 (human hepatoma cell line) cells co-transfected with XRE-Luc and Nano-Luc plasmids were plated in tryptophan free medium containing 1% of dialyzed fetal bovine serum and incubated overnight at 37° C. in a CO2 incubator. After 24 hours, cells were treated for 6 hours with test compounds or not. […] As a positive control, cells were incubated with TCDD.

Where [5] appears, read: HepG2, read-out: CYP1A1 (% Inhibition).
[6] abbreviates: HepG2, read-out: CYP1B1 (% Inhibition).
[7] abbreviates: Assay 1: AhR-Luc Human Antagonism (IC50, nM), values marked *: kynurenine 50 μM, 6 hours.
The mark [8] stands for this setting: values marked #: AhR activating ligand kynurenine.
Setting [9] is: Assay 1: AhR-Luc Human Antagonism (IC50, nM), unmarked values: kynurenine 200 μM, 6 hours.
[10] abbreviates: unmarked values: AhR activating ligand kynurenic acid.

One may read the inhibition as the relative decrease from the control value, in per cent. The term IC50 denotes the concentration at which inhibition is half-maximal. As a reminder, the EC50 is the concentration that produces a half-maximal response.

Read-outs that look alike come from different tables or passages of the source.

Turning to `CC[C@H](CO)Nc1cc(-c2ccc(Cl)cc2)nc(-c2cccnc2)n1` [Example 1, (R)-2-((6-(4-chlorophenyl)-2-(pyridin-3-yl)pyrimidin-4-yl)amino)butan-1-ol], the inhibition at 0.123 µM in data set [1] (setting [5]) was 60%; in data set [1] (setting [6]), 92%. For the same compound, the concentration for half-maximal inhibition (IC50) in data set [2] (setting [7]) was 10 to 100 nM; in data set [3] (setting [8]) it was 100 to 1000 nM. In addition, in data set [4] (number of the cell), the EC50 came to 12.6 nM.
Take `O=C1CN(c2cc(-c3ccc(Cl)cc3)nc(-c3cccnc3)n2)CCN1` [Example 94, 4-(6-(4-chlorophenyl)-2-(pyridin-3-yl)pyrimidin-4-yl)piperazin-2-one]: the inhibition at 0.123 µM in data set [1] (setting [5]) amounted to 63.1%; in data set [1] (setting [6]), 92.1%. Further, the IC50 in data set [2] (setting [7]) is 10 to 100 nM; in data set [3] (setting [8]) it was 100 to 1000 nM. The EC50 in data set [4] (class in brackets of the cell) is > 10000 nM; in data set [4] (number of the cell), > 30000 nM.
On to `CN1CCN(c2cc(-c3ccc(Cl)cc3)nc(-c3cccnc3)n2)CC1` [Example 105, 4-(4-chlorophenyl)-6-(4-methylpiperazin-1-yl)-2-(pyridin-3-yl)pyrimidine], for which the inhibition at 0.123 µM was 59.2% in data set [1] (setting [5]) and 88.4% in data set [1] (setting [6]). The IC50 in data set [2] (setting [7]) was < 10 nM; in data set [3] (setting [8]), 100 to 1000 nM. The concentration for a half-maximal effect (EC50) is > 10000 nM in data set [4] (class in brackets of the cell) and > 30000 nM in data set [4] (number of the cell).
As for `O[C@H]1CCN(c2cc(-c3ccc(Cl)cc3)nc(-c3cccnc3)n2)C1` [Example 137, (S)-1-(6-(4-chlorophenyl)-2-(pyridin-3-yl)pyrimidin-4-yl)pyrrolidin-3-ol], the inhibition at 0.123 µM in data set [1] (setting [5]) came to 91.6%; in data set [1] (setting [6]) it was 97.7%. Further, the IC50 in data set [2] (setting [9]) and in data set [3] (setting [10]) was < 10 nM each time. Also, the EC50 in data set [4] (class in brackets of the cell) is > 10000 nM; in data set [4] (number of the cell), > 30000 nM.
On to `OCC1CCN(c2cc(-c3ccc(C(F)(F)F)cc3)nc(-c3cccnc3)n2)CC1` [Example 226, (1-(2-(pyridin-3-yl)-6-(4-(trifluoromethyl)phenyl)pyrimidin-4-yl)piperidin-4-yl)methanol], for which the inhibition at 0.123 µM worked out at 108% in data set [1] (setting [5]) and 101% in data set [1] (setting [6]). Further, the IC50 in data set [2] (setting [9]) was < 10 nM; in data set [3] (setting [8]) it was 10 to 100 nM. The concentration for a half-maximal effect (EC50) in data set [4] (class in brackets of the cell) is > 10000 nM; in data set [4] (number of the cell), > 30000 nM.
Turning to `CC(=O)N1CCCN(c2cc(-c3ccc(Cl)cc3)nc(-c3cccnc3)n2)C1` [Example 232, 1-(3-(6-(4-chlorophenyl)-2-(pyridin-3-yl)pyrimidin-4-yl)tetrahydropyrimidin-1 (2H)-yl)ethan-1-one], the inhibition at 0.123 µM in data set [1] (setting [5]) came to 100%; in data set [1] (setting [6]), 99.8%. Besides, the results for the half-maximal inhibitory concentration (IC50) in data set [2] (setting [7]) and in data set [3] (setting [8]) were < 10 nM and > 1000 nM, respectively.
As to `O[C@@H]1CN(c2cc(-c3ccc(Cl)cc3)nc(-c3cccnc3)n2)C[C@@H]1F` [Example 235, (3R,4S)-1-(6-(4-chlorophenyl)-2-(pyridin-3-yl)pyrimidin-4-yl)-4-fluoropyrrolidin-3-ol], the inhibition at 0.123 µM in data set [1] (setting [5]) is 106%; in data set [1] (setting [6]), 101%. The IC50 is < 10 nM in data set [2] (setting [7]) and 10 to 100 nM in data set [3] (setting [8]). Besides, the EC50 in data set [4] (number of the cell) was 3560 nM.
Consider `O=S(=O)(CCO)N1CCN(c2cc(-c3ccc(Cl)cc3)nc(-c3cccnc3)n2)CC1` [Example 239, 2-((4-(6-(4-chlorophenyl)-2-(pyridin-3-yl)pyrimidin-4-yl)piperazin-1-yl)sulfonyl)ethan-1-ol], for which the inhibition at 0.123 µM in data set [1] (setting [5]) stood at 108%; in data set [1] (setting [6]), 101%. For the same compound, the IC50 in data set [2] (setting [9]) and in data set [3] (setting [10]) was < 10 nM in each case. Moreover, the figures for the EC50 in data set [4] (class in brackets of the cell) and in data set [4] (number of the cell) were > 10000 nM and > 30000 nM, respectively.
Take `CC(=O)N[C@@H]1CN(c2cc(-c3ccc(Cl)cc3)nc(-c3cccnc3)n2)C[C@@H]1O` [Example 243, N-((3R,4S)-1-(6-(4-chlorophenyl)-2-(pyridin-3-yl)pyrimidin-4-yl)-4-hydroxypyrrolidin-3-yl)acetamide]: in data set [1] (setting [5]), the inhibition at 0.123 µM was found to be 89.7%. Further, the IC50 in data set [2] (setting [9]) is < 10 nM; in data set [3] (setting [8]) it was 10 to 100 nM.
Regarding `OC[C@H]1CN(c2cc(-c3ccc(C(F)(F)F)cc3)nc(-c3cccnc3)n2)C[C@@H]1O` [Example 258, (3R,4R)-4-(hydroxymethyl)-1-(2-(pyridin-3-yl)-6-(4-(trifluoromethyl)phenyl)pyrimidin-4-yl)pyrrolidin-3-ol], the inhibition at 0.123 µM in data set [1] (setting [5]) is 101%. Further, the IC50 in data set [2] (setting [9]) and in data set [3] (setting [10]) was < 10 nM throughout.
As to `OCC1CCN(c2cc(-c3ccc(N4CCOCC4)cc3)nc(-c3cccnc3)n2)CC1` [Example 268, (1-(6-(4-morpholinophenyl)-2-(pyridin-3-yl)pyrimidin-4-yl)piperidin-4-yl)methanol], in data set [1] (setting [5]), the inhibition at 0.123 µM worked out at 102%. In addition, the IC50 in data set [2] (setting [9]) and in data set [3] (setting [8]) was < 10 nM throughout. Also, the EC50 in data set [4] (class in brackets of the cell) was > 10000 nM; in data set [4] (number of the cell), > 30000 nM.
Turning to `O[C@H]1CCN(c2cc(-c3ccc(Cl)cc3)nc(-c3cncc(F)c3)n2)C1` [Example 323, (S)-1-(6-(4-chlorophenyl)-2-(5-fluoropyridin-3-yl)pyrimidin-4-yl)pyrrolidin-3-ol], the inhibition at 0.123 µM was 108% in data set [1] (setting [5]) and 99.8% in data set [1] (setting [6]). Besides, the results for the half-inhibitory concentration (IC50) in data set [2] (setting [9]) and in data set [3] (setting [8]) were < 10 nM and 10 to 100 nM, respectively. In addition, the EC50 in data set [4] (class in brackets of the cell) was > 10000 nM; in data set [4] (number of the cell) it was > 30000 nM.
Consider `O[C@H]1CCN(c2cc(-c3ccc(C(F)(F)F)cc3)nc(-c3cncc(F)c3)n2)C1` [Example 327, (S)-1-(2-(5-fluoropyridin-3-yl)-6-(4-(trifluoromethyl)phenyl)pyrimidin-4-yl)pyrrolidin-3-ol], for which the inhibition at 0.123 µM was 106% in data set [1] (setting [5]) and 101% in data set [1] (setting [6]). The values for the IC50 in data set [2] (setting [9]) and in data set [3] (setting [8]) were < 10 nM and 10 to 100 nM, respectively. In data set [4] (number of the cell), the EC50 stood at 1720 nM.
For “(3R,4S)-1-(6-(4-chlorophenyl)-2-(pyridin-3-yl)pyrimidin-4-yl)pyrrolidine-3,4-diol [Example 231]”, the IC50 in data set [2] (read-out: Assay 1: AhR-Luc Human Antagonism (IC50), unmarked values: kynurenine 200 μM, 6 hours) is < 10 nM; in data set [3] (setting [8]), 10 to 100 nM. Besides, the results for the EC50 in data set [4] (class in brackets of the cell) and in data set [4] (number of the cell) were > 10000 nM and > 30000 nM, respectively.

For the origin of these results see patent US20230150970A1, “AMINOPYRIMIDINE DERIVATIVES AND THEIR USE AS ARYL HYDROCARBON RECEPTOR MODULATORS” (DONG-A ST CO., LTD., priority 2020, published 2023).
